≈ marks a conversion by molar mass, not a printed value. Like-named read-outs stand apart in the source and are kept apart here.
What was measured:
tubulin [1] = assay: Inhibition of [3H]colchicine binding to tubulin; settings: tubulin 1 μM, [3H]colchicine 5 μM, 10 min at 37 °C
DU145 (prostate cancer) = settings: read-out: GI50 (μM ± SD) DU145, ref [14]; cited from earlier work
tubulin [2] = settings: tubulin 1 μM, [3H]colchicine 5 μM, ref [14], cited from earlier work
Aqueous solubility = assay type: physicochemical; settings: pH 7.4, Solubility (μg/mL), mean ± SD of three experiments
[3] = test system: human tumor cell lines (A549, KB, KBvin, DU145); assay: SRB cytotoxicity, HTCL panel as a whole; assay type: cell-based; settings: read-out: GI50 values across the HTCL panel, range over A549, KB
tubulin [4] = assay: Tubulin assembly inhibition; assay type: biochemical

In the case of `COc1ccc(/C=C\c2cc(OC)c(OC)c(OC)c2)cc1O` [CA-4, combretastatin A-4], the “Inhibition of colchicine binding % Inhibition ± SD 1 μM” value (tubulin [1]; inhibitor 1 μM) is reported as 84 ± 0.3% and the “Inhibition of colchicine binding % Inhibition ± SD 5 μM” value (tubulin [1]; inhibitor 5 μM) is reported as 97 ± 0.4%.
In the case of `COc1ccc2c(c1)CCCN2c1nc(Cl)nc2ccccc12` [Compound 1a], the GI50 (DU145 (prostate cancer)) is given as 0.0015 ± 0.0003 µM, the “Inhibition of colchicine binding % Inhibition ± SD 1 μM” value (tubulin [2]; inhibitor 1 μM) is given as 95 ± 0.7% and the “Inhibition of colchicine binding % Inhibition ± SD 5 μM” value (tubulin [2]; inhibitor 5 μM) is given as 99 ± 0.6%.
Compound `COc1ccc2c(c1)CCCN2c1nc(NCCCO)nc2ccccc12` [Compound 4a, N^1-(2′-(3-Hydroxypropyl)aminoquinazol-4′-yl)-6-methoxy-1,2,3,4-tetrahydro-quinoline] has a solubility at 4 h (Aqueous solubility) of 0.075 mg/mL (≈ 206 µM) and a GI50 [3] of 0.016 to 0.02 µM.
For `COc1ccc2c(c1)CCCN2c1nc(NC2CCCC2)nc2ccccc12` [Compound 4c], the GI50 [3] was 0.14 to 1.42 µM.
With `COc1ccc2c(c1)CCCN2c1cccc2cccnc12` [Compound 8d, 6-Methoxy-3,4-dihydro-2H-1,8′-biquinoline] the “inhibitory activity in the assembly assay” value (tubulin [4]) was “did not display significant inhibitory activity”.
